Reference: the NIST ThermoML archive (doi:10.1016/j.tca.2016.03.026)

Columns and labels:
[1] = xn = mol fraction of the nth substance listed; conditions: 100 kPa, Liquid; for speed of sound: Frequency=3 MHz, Sing-around technique in a fixed-path interferometer; for mass density: Vibrating tube method
[2] = refractive index (Na D-line) (dimensionless); xn = mol fraction of the nth substance listed; conditions: 100 kPa, Liquid, Standard Abbe refractometry

CCCCCCCC[n+]1ccn(C)c1.F[B-](F)(F)F [1-methyl-3-octylimidazolium tetrafluoroborate] + CCCCO
Conditions	mass density, 298.15 K [kg/m3]	mass density, 308.15 K [kg/m3]	mass density, 318.15 K [kg/m3]	refractive index, 298.15 K	refractive index, 308.15 K	refractive index, 318.15 K	speed of sound, 298.15 K [m/s]	speed of sound, 308.15 K [m/s]	speed of sound, 318.15 K [m/s]
[1], x1 = 0.1027	878.23	870.62	862.9	–	–	–	1273.2	1240.8	1206.7
[1], x1 = 0.2022	929.75	922.28	914.69	–	–	–	1306.5	1274.7	1241.8
[1], x1 = 0.3056	970.63	963.3	955.89	–	–	–	1339.7	1308.7	1276.3
[1], x1 = 0.3989	999.88	992.71	985.42	–	–	–	1366.1	1336	1304.2
[1], x1 = 0.5062	1027.17	1020.16	1013	–	–	–	1392.8	1363.2	1333.3
[1], x1 = 0.6018	1047.22	1040.32	1033.31	–	–	–	1413.7	1384.8	1356
[1], x1 = 0.6978	1064.35	1057.54	1050.61	–	–	–	1431.9	1403.8	1377
[1], x1 = 0.8014	1080.2	1073.47	1066.62	–	–	–	1450.2	1423	1397.2
[1], x1 = 0.9062	1094.06	1087.36	1080.57	–	–	–	1468.3	1441.6	1416.3
[1], x1 = 1	1105.02	1098.32	1091.54	–	–	–	1485.1	1458.5	1433.2
[2], x1 = 0.1027	–	–	–	1.40763	1.40492	1.40232	–	–	–
[2], x1 = 0.2022	–	–	–	1.41502	1.41254	1.40964	–	–	–
[2], x1 = 0.3056	–	–	–	1.41903	1.41692	1.41438	–	–	–
[2], x1 = 0.3989	–	–	–	1.42183	1.41956	1.41736	–	–	–
[2], x1 = 0.5062	–	–	–	1.42405	1.42175	1.41965	–	–	–
[2], x1 = 0.6018	–	–	–	1.42594	1.42362	1.42126	–	–	–
[2], x1 = 0.6978	–	–	–	1.42791	1.42542	1.42301	–	–	–
[2], x1 = 0.8014	–	–	–	1.42974	1.42732	1.42444	–	–	–
[2], x1 = 0.9062	–	–	–	1.43151	1.42861	1.42615	–	–	–
[2], x1 = 1	–	–	–	1.43253	1.42984	1.42715	–	–	–

CCCCCCCC[n+]1ccn(C)c1.F[B-](F)(F)F [1-methyl-3-octylimidazolium tetrafluoroborate] + CC(C)(C)O
Conditions	mass density, 298.15 K [kg/m3]	mass density, 308.15 K [kg/m3]	mass density, 318.15 K [kg/m3]	refractive index, 298.15 K	refractive index, 308.15 K	refractive index, 318.15 K	speed of sound, 298.15 K [m/s]	speed of sound, 308.15 K [m/s]	speed of sound, 318.15 K [m/s]
[1], x1 = 0.1017	858.69	849.64	840.32	–	–	–	1188.3	1157.2	1119.1
[1], x1 = 0.1988	914.56	906	897.39	–	–	–	1254.2	1221.6	1190.2
[1], x1 = 0.3011	959.49	951.41	943.34	–	–	–	1309.4	1275.6	1246.5
[1], x1 = 0.4052	994.81	987.25	979.38	–	–	–	1351.5	1322.2	1293.3
[1], x1 = 0.5002	1020.68	1013.4	1005.9	–	–	–	1382.5	1353.6	1324.9
[1], x1 = 0.604	1044.05	1037.31	1029.92	–	–	–	1410.1	1383.3	1354.5
[1], x1 = 0.7024	1062.66	1056.01	1049.1	–	–	–	1433.4	1409	1380.2
[1], x1 = 0.7992	1078.39	1071.8	1064.98	–	–	–	1451.3	1428.2	1402.2
[1], x1 = 0.9014	1092.82	1086.23	1079.48	–	–	–	1467.6	1443.3	1417.2
[1], x1 = 1	1105.02	1098.32	1091.54	–	–	–	1485.1	1458.5	1433.2
[2], x1 = 0.1017	–	–	–	1.40022	1.39681	1.39317	–	–	–
[2], x1 = 0.1988	–	–	–	1.40992	1.40684	1.40405	–	–	–
[2], x1 = 0.3011	–	–	–	1.41591	1.41342	1.41058	–	–	–
[2], x1 = 0.4052	–	–	–	1.41962	1.41719	1.41452	–	–	–
[2], x1 = 0.5002	–	–	–	1.42177	1.41911	1.41635	–	–	–
[2], x1 = 0.604	–	–	–	1.42411	1.42168	1.41871	–	–	–
[2], x1 = 0.7024	–	–	–	1.42628	1.42348	1.42104	–	–	–
[2], x1 = 0.7992	–	–	–	1.42805	1.42562	1.42272	–	–	–
[2], x1 = 0.9014	–	–	–	1.43025	1.42769	1.42513	–	–	–
[2], x1 = 1	–	–	–	1.43253	1.42984	1.42715	–	–	–

CCCCCCCC[n+]1ccn(C)c1.F[B-](F)(F)F [1-methyl-3-octylimidazolium tetrafluoroborate] + CC(C)CO
Conditions	mass density, 298.15 K [kg/m3]	mass density, 308.15 K [kg/m3]	mass density, 318.15 K [kg/m3]	refractive index, 298.15 K	refractive index, 308.15 K	refractive index, 318.15 K	speed of sound, 298.15 K [m/s]	speed of sound, 308.15 K [m/s]	speed of sound, 318.15 K [m/s]
[1], x1 = 0.1084	876.21	869.11	860.8	–	–	–	1230.3	1198.3	1162.2
[1], x1 = 0.2056	927.81	920.72	912.57	–	–	–	1274.1	1242.4	1206.4
[1], x1 = 0.3002	966.65	959.59	951.64	–	–	–	1314.4	1282.1	1246.2
[1], x1 = 0.4082	1001.41	994.4	986.65	–	–	–	1354.1	1322.4	1287.5
[1], x1 = 0.4989	1024.88	1017.95	1010.44	–	–	–	1381.1	1351.3	1317.8
[1], x1 = 0.6024	1047.08	1040.26	1032.97	–	–	–	1407.2	1378.2	1347.4
[1], x1 = 0.7044	1065.38	1058.63	1051.52	–	–	–	1429.1	1402.1	1373.3
[1], x1 = 0.8062	1080.91	1074.22	1067.26	–	–	–	1447.2	1421.1	1394.3
[1], x1 = 0.8998	1093.3	1086.63	1079.78	–	–	–	1463.8	1437.1	1411.3
[1], x1 = 1	1105.02	1098.32	1091.54	–	–	–	1485.1	1458.5	1433.2
[2], x1 = 0.1084	–	–	–	1.40643	1.40292	1.40008	–	–	–
[2], x1 = 0.2056	–	–	–	1.41442	1.41142	1.40854	–	–	–
[2], x1 = 0.3002	–	–	–	1.41922	1.41636	1.41407	–	–	–
[2], x1 = 0.4082	–	–	–	1.42292	1.41998	1.41801	–	–	–
[2], x1 = 0.4989	–	–	–	1.42482	1.42182	1.41925	–	–	–
[2], x1 = 0.6024	–	–	–	1.42664	1.42372	1.42108	–	–	–
[2], x1 = 0.7044	–	–	–	1.42845	1.42562	1.42306	–	–	–
[2], x1 = 0.8062	–	–	–	1.43004	1.42748	1.42474	–	–	–
[2], x1 = 0.8998	–	–	–	1.43121	1.42866	1.42604	–	–	–
[2], x1 = 1	–	–	–	1.43253	1.42984	1.42715	–	–	–
